Laboratory results published in patent US20260226048A1, “MULTI-CYCLIC IRAK AND FLT3 INHIBITING COMPOUNDS AND USES THEREOF” (CHILDREN'S HOSPITAL MEDICAL CENTER, priority 2023, published 2026).

Experiments:
IRAK4 = target: T1, IRAK4 (Homo sapiens, UniProt Q9NWZ3); experiment: RBC HotSpot Kinase Assay, IRAK4; format: biochemical; parameters: purchased Reaction Biology (RBC HotSpot); settings: isolated kinase enzyme, 33P-ATP, P81 filter-binding
T1 sequence (Q9NWZ3 1-460): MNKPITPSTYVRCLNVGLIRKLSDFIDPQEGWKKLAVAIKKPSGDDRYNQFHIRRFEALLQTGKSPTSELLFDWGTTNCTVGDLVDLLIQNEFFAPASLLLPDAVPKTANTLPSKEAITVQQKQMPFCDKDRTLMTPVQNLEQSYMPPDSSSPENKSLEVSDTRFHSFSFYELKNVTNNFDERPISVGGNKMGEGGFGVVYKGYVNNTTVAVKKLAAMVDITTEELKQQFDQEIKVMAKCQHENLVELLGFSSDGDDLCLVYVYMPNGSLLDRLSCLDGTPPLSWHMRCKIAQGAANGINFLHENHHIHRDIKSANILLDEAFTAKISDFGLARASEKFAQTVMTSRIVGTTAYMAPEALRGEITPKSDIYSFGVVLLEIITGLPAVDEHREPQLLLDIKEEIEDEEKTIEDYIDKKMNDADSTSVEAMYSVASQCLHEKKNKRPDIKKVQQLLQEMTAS
Source text: (§1) This assay uses the isolated kinase enzyme. This assay is very useful for determining competition of the inhibitor for ATP and/or substrates and for measuring the kinetics of enzyme inhibition. […] Unlike kinase binding assays that measure competition for ATP, the HotSpot Kinase Assay is a functional assay that measures catalytic activity; as such it measures relative functional potency regardless of the mechanism of enzyme inhibition. This assay uses the form of the various enzymes that are easiest to express, which may not necessarily be the form of the enzyme that exist in the cell. (Sometimes the carboxy terminus has been truncated to aid in expression, or, if it is a receptor kinase, the enzyme itself is isolated from the other parts of the receptor that are involved in regulating kinase activity.)
(§2) The reagent used was as follows: Base Reaction buffer; 20 mM Hepes (pH 7.5), 10 mM MgCl2, 1 mM EGTA, 0.01% Brij35, 0.02 mg/ml BSA, 0.1 mM Na3VO4, 2 mM DTT, 1% DMSO. Required cofactors were added individually to each kinase reaction.
The reaction procedure was as follows: • 1) Substrates were prepared in freshly prepared Reaction Buffer. • 2) Any required cofactors were delivered to the substrate solution above. • 3) Kinase was delivered into the substrate solution and gently mixed. • 4) Compounds were delivered in 1000A DM into the kinase reaction mixture by Acoustic technology (Echo550; nanoliter range), followed by incubation for 20 min at room temp. • 5) 33P-ATP was delivered into the reaction mixture to initiate the reaction. • 6) The mixture was incubated for 2 hours at room temperature. • 7) Kinase activity was detected by P81 filter-binding method.

FLT3 = target: T2, FLT3 (Homo sapiens, UniProt P36888); experiment: RBC HotSpot Kinase Assay, FLT3; format: biochemical; parameters: purchased Reaction Biology (RBC HotSpot); settings: isolated kinase enzyme, 33P-ATP, P81 filter-binding
T2 sequence (P36888 27-993): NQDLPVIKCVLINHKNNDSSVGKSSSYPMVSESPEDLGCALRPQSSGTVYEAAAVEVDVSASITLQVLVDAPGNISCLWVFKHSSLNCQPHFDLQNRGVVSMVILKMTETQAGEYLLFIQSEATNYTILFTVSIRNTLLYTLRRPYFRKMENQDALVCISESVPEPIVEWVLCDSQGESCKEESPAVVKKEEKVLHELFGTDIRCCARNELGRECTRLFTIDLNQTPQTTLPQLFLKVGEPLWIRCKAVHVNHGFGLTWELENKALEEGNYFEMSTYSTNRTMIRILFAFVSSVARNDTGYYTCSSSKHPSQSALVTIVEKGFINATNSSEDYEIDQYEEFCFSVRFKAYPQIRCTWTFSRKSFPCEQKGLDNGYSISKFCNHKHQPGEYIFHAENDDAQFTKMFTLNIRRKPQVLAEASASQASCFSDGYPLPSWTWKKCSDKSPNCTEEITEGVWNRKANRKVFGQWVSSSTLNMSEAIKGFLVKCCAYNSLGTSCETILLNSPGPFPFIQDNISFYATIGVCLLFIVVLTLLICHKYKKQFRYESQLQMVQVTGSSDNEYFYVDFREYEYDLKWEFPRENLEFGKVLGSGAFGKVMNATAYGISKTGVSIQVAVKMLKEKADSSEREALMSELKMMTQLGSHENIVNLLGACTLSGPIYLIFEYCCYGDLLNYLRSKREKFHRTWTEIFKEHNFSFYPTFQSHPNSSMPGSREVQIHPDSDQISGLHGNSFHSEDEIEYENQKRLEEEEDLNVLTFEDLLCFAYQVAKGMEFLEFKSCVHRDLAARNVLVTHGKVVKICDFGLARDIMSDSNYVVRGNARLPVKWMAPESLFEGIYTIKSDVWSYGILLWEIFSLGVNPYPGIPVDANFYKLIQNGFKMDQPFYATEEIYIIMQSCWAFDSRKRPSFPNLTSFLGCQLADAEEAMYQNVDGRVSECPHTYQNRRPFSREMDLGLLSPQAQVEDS
Source text: as §1, with “enzyme.” for “enzyme. This assay is very useful for determining competition of the inhibitor for ATP and/or substrates and for measuring the kinetics of enzyme inhibition.”
as §2

MOLM14 D835Y cells = experiment: MOLM14 D835Y cell viability assay (Cell Titer Glo); format: cell-based; settings: Homo sapiens, MOLM-14, 48 h, cell viability, Cell Titer Glo, 48 hours; read-out: MOLM14 D835Y IC50
Protocol: (§3) Both cell lines have activated FLT3 receptors, each of which carry additional resistance mutations in the kinase domain (D835Y and F691L, respectively).
(§4) For viability/cytotoxicity assessments, cells were seeded into 1536-well white polystyrene tissue culture-treated Greiner plates using a Multidrop Combi dispenser (ThermoFisher), in final volume 5 μL of growth media per well, at a density of 1000 cells per well. […] Plates were incubated for 48 hours at standard incubator conditions covered by a stainless steel gasketed lid to prevent evaporation. 48 hours post compound addition, 3 μL of Cell Titer Glo (Promega) were added to each well and plates were incubated at room temperature for 15 minutes with the stainless-steel lid in place. Luminescence readings were taken using a Viewlux imager (PerkinElmer) with a 2 second exposure time per plate.

MOLM14 F691L cells = experiment: MOLM14 F691L cell viability assay (Cell Titer Glo); format: cell-based; settings: Homo sapiens, MOLM-14; cell viability, Cell Titer Glo, 48 hours; read-out: MOLM14 F691L IC50
Protocol: as §3, §4

IRAK1 = target: T3, IRAK1 (Homo sapiens, UniProt P51617); experiment: RBC HotSpot Kinase Assay, IRAK1; format: biochemical; settings: isolated kinase enzyme, 33P-ATP, P81 filter-binding
T3 construct: purchased Reaction Biology (RBC HotSpot)
T3 sequence (P51617 whole entry): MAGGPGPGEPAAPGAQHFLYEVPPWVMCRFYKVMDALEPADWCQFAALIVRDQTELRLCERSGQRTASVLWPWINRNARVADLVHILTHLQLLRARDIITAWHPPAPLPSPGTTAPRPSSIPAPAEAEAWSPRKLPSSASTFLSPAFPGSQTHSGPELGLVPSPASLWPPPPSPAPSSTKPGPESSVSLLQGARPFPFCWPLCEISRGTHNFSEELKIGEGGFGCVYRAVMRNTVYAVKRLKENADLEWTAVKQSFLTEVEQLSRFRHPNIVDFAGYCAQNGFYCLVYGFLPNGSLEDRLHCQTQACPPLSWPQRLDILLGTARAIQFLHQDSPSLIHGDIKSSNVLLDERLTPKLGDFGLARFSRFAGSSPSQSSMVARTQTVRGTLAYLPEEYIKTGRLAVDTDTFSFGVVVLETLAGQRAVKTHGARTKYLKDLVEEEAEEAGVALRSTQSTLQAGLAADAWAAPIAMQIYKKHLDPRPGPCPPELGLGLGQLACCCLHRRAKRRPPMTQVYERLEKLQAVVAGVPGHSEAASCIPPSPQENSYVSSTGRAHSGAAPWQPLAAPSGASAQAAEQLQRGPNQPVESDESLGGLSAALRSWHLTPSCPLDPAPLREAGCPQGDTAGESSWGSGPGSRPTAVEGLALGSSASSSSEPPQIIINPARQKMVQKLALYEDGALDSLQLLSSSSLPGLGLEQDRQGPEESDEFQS
Source text: as §1, with “enzyme.” for “enzyme. This assay is very useful for determining competition of the inhibitor for ATP and/or substrates and for measuring the kinetics of enzyme inhibition.”
as §2

Row | SMILES | IC50 (IRAK4) [nM] | IC50 (FLT3) [nM] | IC50 (MOLM14 D835Y cells) [nM] | IC50 (MOLM14 F691L cells) [nM] | IC50 (IRAK1) [nM]
1 | FC(F)COc1cc2ncc(-c3cncc(N[C@H]4CNCC[C@@H]4F)n3)n2nc1C1CC1 [Compound 7a, 6-(6-cyclopropyl-7-(2,2-difluoroethoxy)imidazo[1,2-b]pyridazin-3-yl)-N-((3 S,4S)-4-fluoropiperidin-3-yl)pyrazin-2-amine] | 2 | < 0.5 | 10 | 20 | 73
2 | c1cc(-c2cnc3cc(OC4CC4)c(C4CC4)nn23)nc(N[C@@H]2CCCNC2)n1 [Compound 11a, (R)-4-(7-cyclopropoxy-6-cyclopropylimidazo[1,2-b]pyridazin-3-yl)-N-(piperidin-3-yl)pyrimidin-2-amine] | 5 | < 0.5 | 22 | 80 | 52
3 | F[C@H]1CNC[C@@H]1Nc1cncc(-c2cnc3cc(OC4CC4)c(C4CC4)nn23)n1 [Compound 14a, 6-(7-cyclopropoxy-6-cyclopropylimidazo[1,2-b]pyridazin-3-yl)-N-((3S,4S)-4-fluoropyrrolidin-3-yl)pyrazin-2-amine] | 16 | < 0.5 | 101 | 318 | 117
4 | c1ncc(-c2cnc3cc(OC4CC4)c(C4CC4)nn23)nc1N[C@@H]1CCCNC1 [Compound 15a, (R)-6-(7-cyclopropoxy-6-cyclopropylimidazo[1,2-b]pyridazin-3-yl)-N-(piperidin-3-yl)pyrazin-2-amine] | 18 | < 0.5 | 45 | 113 | 258
5 | COc1cc2ncc(-c3nc(N[C@H]4CNC[C@@H]4F)ncc3F)n2nc1C1CCC1 [Compound 52a, 4-(6-cyclobutyl-7-methoxyimidazo[1,2-b]pyridazin-3-yl)-5-fluoro-N-((3S,4S)-4-fluoropyrrolidin-3-yl)pyrimidin-2-amine] | 0.9 | < 0.5 | 3 | 45 | 0.8
6 | COc1cc2ncc(-c3nc(N[C@@H]4CCCNC4)ncc3F)n2nc1C1CCC1 [Compound 53a, (R)-4-(6-cyclobutyl-7-methoxyimidazo[1,2-b]pyridazin-3-yl)-5-fluoro-N-(piperidin-3-yl)pyrimidin-2-amine] | < 0.5 | < 0.5 | 1 | 10 | 1
7 | COc1cc2ncc(-c3nc(N[C@H]4CNC[C@@H]4F)ncc3F)n2nc1C1CC(C)(C)C1 [Compound 55a, 4-(6-(3,3-dimethylcyclobutyl)-7-methoxyimidazo[1,2-b]pyridazin-3-yl)-5-fluoro-N-((3S,4S)-4-fluoropyrrolidin-3-yl)pyrimidin-2-amine] | 2 | < 0.5 | 28 | 225 | 5
8 | COc1cc2ncc(-c3nc(N[C@@H]4CCCNC4)ncc3F)n2nc1C1CC(C)(C)C1 [Compound 56a, (R)-4-(6-(3,3-dimethylcyclobutyl)-7-methoxyimidazo[1,2-b]pyridazin-3-yl)-5-fluoro-N-(piperidin-3-yl)pyrimidin-2-amine] | 2 | < 0.5 | 8 | 71 | 0.7
9 | COc1cc2ncc(-c3nc(N[C@H]4CNC[C@@H]4F)ncc3F)n2nc1C1CC2(CCC2)C1 [Compound 58a, 5-fluoro-N-((3S,4S)-4-fluoropyrrolidin-3-yl)-4-(7-methoxy-6-(spiro[3.3]heptan-2-yl)imidazo[1,2-b]pyridazin-3-yl)pyrimidin-2-amine] | 5 | < 0.5 | 14 | 127 | 7
10 | COc1cc2ncc(-c3nc(N[C@H]4CNC[C@@H]4F)ncc3F)n2nc1C1CCCC1 [Compound 61a, 4-(6-cyclopentyl-7-methoxyimidazo[1,2-b]pyridazin-3-yl)-5-fluoro-N-((3S,4S)-4-fluoropyrrolidin-3-yl)pyrimidin-2-amine] | < 0.5 | < 0.5 | 3 | 28 | < 0.5
11 | COc1cc2ncc(-c3cncc(N[C@H]4CNC[C@@H]4F)n3)n2nc1C1CC(F)(F)C1 [Compound 71a, 6-(6-(3,3-difluorocyclobutyl)-7-methoxyimidazo[1,2-b]pyridazin-3-yl)-N-((3S,4S)-4-fluoropyrrolidin-3-yl)pyrazin-2-amine] | 64 | 1 | 576 |  | 342
12 | COc1cc2ncc(-c3cncc(N[C@@H]4CCCNC4)n3)n2nc1C1CC(F)(F)C1 [Compound 72a, (R)-6-(6-(3,3-difluorocyclobutyl)-7-methoxyimidazo[1,2-b]pyridazin-3-yl)-N-(piperidin-3-yl)pyrazin-2-amine] | 60 | 0.8 | 289 |  | 127
13 | COc1cc2ncc(-c3cncc(N[C@H]4CNCC[C@@H]4F)n3)n2nc1C1CC(F)(F)C1 [Compound 73a, 6-(6-(3,3-difluorocyclobutyl)-7-methoxyimidazo[1,2-b]pyridazin-3-yl)-N-((3S,4S)-4-fluoropiperidin-3-yl)pyrazin-2-amine] | 12 | < 0.5 | 204 |  | 129
14 | COc1cc2ncc(-c3ccnc(N[C@@H]4CCCNC4)n3)n2nc1C1CCC1 [Compound 78a, (R)-4-(6-cyclobutyl-7-methoxyimidazo[1,2-b]pyridazin-3-yl)-N-(piperidin-3-yl)pyrimidin-2-amine] | 7 | < 0.5 | 29 |  | 75
